This is an account of results in PubChem BioAssay AID330 (DTP/NCI, 2004).

Where “and” joins values, the source holds several entries; their conditions need not be identical. Equal entries are not always repeated. Toxic doses and inconclusive results are not listed. Peptide text beside a SMILES is read from it. * marks the point of attachment. Cbz = O=C(OCc1ccccc1)*

The test system of this experiment is P388 leukemia ip, CD2F1 mice, survival T/C. In words: NCI In Vivo Anticancer Drug Screen. Data for tumor model P388 Leukemia (intraperitoneal) in CD2F1 (CDF1) mice. To be noted: endpoint: median survival time, higher = longer survival. In outline: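 Mice carrying the transplanted tumor received test compound or vehicle. Survival was recorded in each group, and the value is the treated-group measurement divided by that of the vehicle-treated control group.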

The mark [1] stands for this setting: dose: 60.0 mg/kg/injection, schedule: Q01DX005 (ip), vehicle: saline with Tween-80.
Where [2] appears, read: dose: 120.0 mg/kg/injection, schedule: Q01DX005 (ip), vehicle: saline with Tween-80.
Setting [3] is: dose: 240.0 mg/kg/injection, schedule: Q01DX005 (ip), vehicle: saline with Tween-80.
[4] abbreviates: dose: 50.0 mg/kg/injection, schedule: Q01DX005 (ip), vehicle: saline with Tween-80.
The mark [5] stands for this setting: dose: 50.0 mg/kg/injection, schedule: Q01DX009 (ip), vehicle: Klucel (hydroxypropylcellulose) (HPC).
Where [6] appears, read: dose: 100.0 mg/kg/injection, schedule: Q01DX009 (ip), vehicle: Klucel (hydroxypropylcellulose) (HPC).
Where [7] appears, read: dose: 200.0 mg/kg/injection, schedule: Q01DX009 (ip), vehicle: Klucel (hydroxypropylcellulose) (HPC).
The mark [8] stands for this setting: dose: 50.0 mg/kg/injection, schedule: Q01DX005 (ip), vehicle: Klucel (hydroxypropylcellulose) (HPC).
The mark [9] stands for this setting: dose: 100.0 mg/kg/injection, schedule: Q01DX005 (ip), vehicle: Klucel (hydroxypropylcellulose) (HPC).
[10] abbreviates: dose: 200.0 mg/kg/injection, schedule: Q01DX005 (ip), vehicle: Klucel (hydroxypropylcellulose) (HPC).
The mark [11] stands for this setting: dose: 100.0 mg/kg/injection, schedule: Q01DX009 (ip), vehicle: saline with Tween-80.
Setting [12] is: dose: 200.0 mg/kg/injection, schedule: Q01DX009 (ip), vehicle: saline with Tween-80.
Setting [13] is: dose: 100.0 mg/kg/injection, schedule: Q01DX005 (ip), vehicle: saline with Tween-80.
[14] abbreviates: dose: 50.0 mg/kg/injection, schedule: Q01DX009 (ip), vehicle: saline.
[15] abbreviates: dose: 100.0 mg/kg/injection, schedule: Q01DX009 (ip), vehicle: saline.
The mark [16] stands for this setting: dose: 200.0 mg/kg/injection, schedule: Q01DX009 (ip), vehicle: saline.
Where [17] appears, read: dose: 7.5 mg/kg/injection, schedule: Q01DX005 (ip), vehicle: saline with Tween-80.
[18] abbreviates: dose: 15.0 mg/kg/injection, schedule: Q01DX005 (ip), vehicle: saline with Tween-80.
Where [19] appears, read: dose: 25.0 mg/kg/injection, schedule: Q01DX005 (ip), vehicle: Klucel (hydroxypropylcellulose) (HPC).
[20] abbreviates: dose: 50.0 mg/kg/injection, schedule: Q01DX009 (ip), vehicle: saline with Tween-80.

As to `CCOC1(NC(=O)N(C)C)CC1`, the T/C is 103 % of control (dose: 50.0 mg/kg/injection, schedule: Q04DX003 (ip), vehicle: saline); 102 % of control (dose: 100.0 mg/kg/injection, schedule: Q04DX003 (ip), vehicle: saline); 102 % of control (dose: 200.0 mg/kg/injection, schedule: Q04DX003 (ip), vehicle: saline).

Consider `CCOc1ccncc1[N+](=O)[O-]`, for which the T/C runs as follows: (dose: 25.0 mg/kg/injection, schedule: Q01DX009 (ip), vehicle: saline sonified) 100 % of control; (dose: 50.0 mg/kg/injection, schedule: Q01DX009 (ip), vehicle: saline sonified) 109 % of control; under setting [1], 101 % of control; (dose: 100.0 mg/kg/injection, schedule: Q01DX009 (ip), vehicle: saline sonified) 90 % of control; under setting [2], 93 % of control; under setting [3], 95 % of control.

Regarding `CCCCCNC(=O)CCC(NC(=O)c1ccc(N(C)Cc2cnc3nc(N)nc(N)c3n2)cc1)C(=O)O` (centres undefined), the T/C runs as follows: (dose: 200.0 mg/kg/injection, schedule: Q01DX009 (ip), vehicle: sodium bicarbonate) 155 % of control; (dose: 400.0 mg/kg/injection, schedule: Q01DX009 (ip), vehicle: sodium bicarbonate) 91 % of control.

On to `Cc1cc(C)[n+](C)c2cc3ccccc3cc12`, for which the T/C (dose: 12.5 mg/kg/injection, schedule: Q01DX005 (ip), vehicle: saline with Tween-80) is 115 % of control and the T/C under setting [4] is 109 % of control.

Take `CCCCCCCCNC(=O)OCc1c2ccccc2cc2ccccc12`: the T/C is, setting by setting: under setting [5], 98 % of control; under setting [6], 101 % of control; under setting [7], 98 % of control.

In the case of `CC(NC(=O)OCc1ccccc1)C(=O)NC(CO)C(N)=O` (stereo not drawn) (Cbz-Ala-Ser-NH2; configuration not given here), the T/C is, setting by setting: under setting [8], 97 % of control; under setting [9], 98 % of control; under setting [10], 102 % of control.

On to `CC(C)C([N+](C)(C)C)P(=O)([O-])O` (centres undefined), for which the T/C by setting is: under setting [11], 100 % of control; under setting [12], 90 % of control.

As to `CC(=O)C(=Cc1ccc(Cl)cc1)C(C)=O`, the T/C by setting is: under setting [4], 97 % of control; under setting [13], 101 % of control.

On to `O=C(Nc1cc(Cl)ccc1Cl)Oc1ccc(Cl)cc1C(=O)c1ccccc1`, for which the T/C is 102 % of control under setting [14], 97 % of control under setting [15] and 89 % of control under setting [16].

With `Cc1onc(-c2ccccc2)c1C`, the T/C is, setting by setting: (dose: 100.0 mg/kg/injection, schedule: Q01DX001 (ip), vehicle: saline) 99 % of control; (dose: 200.0 mg/kg/injection, schedule: Q01DX001 (ip), vehicle: saline) 102 % of control; (dose: 400.0 mg/kg/injection, schedule: Q01DX001 (ip), vehicle: saline) 105 % of control.

For the compound `c1ccc(N=c2cnc3c(ccc4ccccc43)o2)cc1`, the T/C is, setting by setting: (dose: 3.75 mg/kg/injection, schedule: Q01DX005 (ip), vehicle: saline with Tween-80) 102 % of control; under setting [17], 112 % of control; under setting [18], 107 % of control and 116 % of control; under setting [1], 115 % of control.

For `O=c1[nH]c(=O)n(-c2cccc3ccccc23)c(=O)n1-c1cccc2ccccc12`, the T/C is 100 % of control under setting [5], 108 % of control under setting [6] and 105 % of control under setting [7].

On to `C=CCOc1nc(OCC=C)nc(OCC=C)n1`, for which the T/C under setting [11] was 97 % of control and the T/C under setting [12] is 93 % of control.

Regarding `C=CC(C)(O)CS(=O)(=O)c1ccccc1` (centres undefined), the T/C reads like this: under setting [14], 93 % of control; under setting [15], 101 % of control; under setting [16], 101 % of control.

As to `O=C(Nc1ccccc1)c1csc(-c2csc(CCNC(=O)C(F)(F)F)n2)n1`, the T/C (dose: 12.5 mg/kg/injection, schedule: Q01DX009 (ip), vehicle: distilled water + Tween-80) is 88 % of control; the T/C (dose: 25.0 mg/kg/injection, schedule: Q01DX009 (ip), vehicle: distilled water + Tween-80) was 88 % of control; the T/C (dose: 100.0 mg/kg/injection, schedule: Q01DX009 (ip), vehicle: distilled water + Tween-80) was 88 % of control; the T/C (dose: 200.0 mg/kg/injection, schedule: Q01DX009 (ip), vehicle: distilled water + Tween-80) was 89 % of control.

For the compound `CCN=C(NCC)Nc1ccc(NC(=O)Nc2ccc(NC(=O)Nc3ccc(NC(=NCC)NCC)cc3)cc2)cc1`, the T/C was 107 % of control (dose: 6.25 mg/kg/injection, schedule: Q01DX005 (ip), vehicle: Klucel (hydroxypropylcellulose) (HPC)); 117 % of control (dose: 12.5 mg/kg/injection, schedule: Q01DX005 (ip), vehicle: Klucel (hydroxypropylcellulose) (HPC)); 121 % of control and 123 % of control under setting [19]; 117 % of control under setting [8]; 90 % of control under setting [10].

`C=C(C#N)C1OC2OC(C)(C)OC2C1OCCCCCCCC` (centres undefined): the T/C by setting is: (dose: 100.0 mg/kg/injection, schedule: Q04DX002 (ip), vehicle: saline with Tween-80) 106 % of control; (dose: 200.0 mg/kg/injection, schedule: Q04DX002 (ip), vehicle: saline with Tween-80) 106 % of control.

As to `COc1cc(C)cc(OC)c1`, the T/C reads like this: under setting [19], 101 % of control; under setting [8], 100 % of control; under setting [9], 100 % of control; under setting [10], 110 % of control.

With `Fc1ccccc1C=NC12CC3CC(CC(C3)C1)C2`, the T/C is, setting by setting: under setting [20], 100 % of control; under setting [11], 102 % of control; under setting [12], 108 % of control.

Consider `CNC(=S)N\N=C/C(/C=C/c1ccccc1)=N\NC(=S)NC`, for which the T/C was 90 % of control (dose: 100.0 mg/kg/injection, schedule: Q01DX001 (ip), vehicle: Klucel (hydroxypropylcellulose) (HPC)) and 100 % of control (dose: 200.0 mg/kg/injection, schedule: Q01DX001 (ip), vehicle: Klucel (hydroxypropylcellulose) (HPC)).

As to `CCCCCCCCSC(SCCCCCCCC)C(O)C(O)C(O)CO` (centres undefined), the T/C is, setting by setting: under setting [4], 93 % of control; under setting [13], 109 % of control.

As for `C=CCOc1ccccc1N/N=C(\Cl)C(=O)OCC`, the T/C is 124 % of control (dose: 12.5 mg/kg/injection, schedule: Q01DX009 (ip), vehicle: saline with Tween-80); 120 % of control (dose: 25.0 mg/kg/injection, schedule: Q01DX009 (ip), vehicle: saline with Tween-80); 121 % of control under setting [20].

As to `COC(=O)c1nc2[nH]n(-c3ccccc3)c(=O)c2c(C(=O)OC)c1C(C)C(=O)c1ccc(Cl)cc1` (centres undefined), the T/C is 96 % of control under setting [1], 103 % of control under setting [2] and 98 % of control under setting [3].

Regarding `NS(=O)(=O)c1ccc(N2CCS(=O)(=O)CC2)cc1`, the T/C under setting [14] is 101 % of control, the T/C under setting [15] is 90 % of control and the T/C under setting [16] is 97 % of control.

Turning to `CN1CCCOC(c2ccccc2)c2ccsc2CC1` (centres undefined), the T/C reads like this: under setting [17], 101 % of control; under setting [18], 102 % of control; (dose: 30.0 mg/kg/injection, schedule: Q01DX005 (ip), vehicle: saline with Tween-80) 102 % of control; under setting [1], 101 % of control and 93 % of control.

In the case of `NS(=O)(=O)Cc1noc2ccc(F)cc12`, the T/C under setting [4] is 93 % of control; the T/C under setting [13] was 104 % of control; the T/C (dose: 200.0 mg/kg/injection, schedule: Q01DX005 (ip), vehicle: saline with Tween-80) is 103 % of control.

In the case of `Cc1cc(C)c2c(=O)n(-c3ccccc3C)c(=S)n(-c3ccccc3C)c2n1`, the T/C runs as follows: under setting [1], 100 % of control; under setting [2], 86 % of control.

`COC(=O)C(=O)c1cc(=O)[nH]c(NC(C)=O)n1`: the T/C runs as follows: (dose: 100.0 mg/kg/injection, schedule: Q01DX001 (ip), vehicle: saline with Tween-80) 107 % of control; (dose: 200.0 mg/kg/injection, schedule: Q01DX001 (ip), vehicle: saline with Tween-80) 101 % of control; (dose: 400.0 mg/kg/injection, schedule: Q01DX001 (ip), vehicle: saline with Tween-80) 107 % of control.
